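Step 1: Grow cells in 96-well plates. Step 2: Expose to compound for 48 hours at 5 concentrations. Step 3: Interpolate endpoints linearly; if unreached, use highest concentration. GI50 marks 50% less growth. The concentration for full growth arrest is given as TGI.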
Assays:
Assay in all cases: DTP human tumour cell line panel, 48 h; in the data active = GI50 below about 0.43 µM; inactive = the rest
[1] = tested on: 786-0 renal
[2] = tested on: A498 renal
[3] = tested on: A549 NSCLC
[4] = tested on: ACHN renal
[5] = tested on: BT-549 breast
[6] = tested on: CCRF-CEM leukemia
[7] = tested on: COLO 205 colon
[8] = tested on: EKVX NSCLC
[9] = tested on: HCC-2998 colon
[10] = tested on: HCT-116 colon
[11] = tested on: HCT-15 colon
[12] = tested on: HL-60(TB) leukemia
[13] = tested on: HOP-62 NSCLC
[14] = tested on: HOP-92 NSCLC
[15] = tested on: HS 578T breast
[16] = tested on: HT29 colon
[17] = tested on: IGROV1 ovarian
[18] = tested on: K-562 leukemia
[19] = tested on: KM12 colon
[20] = tested on: LOX IMVI melanoma
[21] = tested on: M14 melanoma
[22] = tested on: MALME-3M melanoma
[23] = tested on: MCF7 breast
[24] = tested on: MDA-MB-231 breast
[25] = tested on: MDA-MB-435
[26] = tested on: MOLT-4 leukemia
[27] = tested on: NCI-H23 lung
[28] = tested on: NCI-H460 lung
[29] = tested on: NCI-H522 lung
[30] = tested on: NCI/ADR-RES ovarian
[31] = tested on: OVCAR-3 ovarian
[32] = tested on: OVCAR-4 ovarian
[33] = tested on: OVCAR-5 ovarian
[34] = tested on: OVCAR-8 ovarian
[35] = tested on: PC-3 prostate
[36] = tested on: RPMI-8226 leukemia
[37] = tested on: RXF 393 renal
[38] = tested on: SF-268 CNS
[39] = tested on: SF-295 CNS
[40] = tested on: SF-539 CNS
[41] = tested on: SK-MEL-2 melanoma
[42] = tested on: SK-MEL-28 melanoma
[43] = tested on: SK-MEL-5 melanoma
[44] = tested on: SK-OV-3 ovarian
[45] = tested on: SN12C renal
[46] = tested on: SNB-19 CNS
[47] = tested on: SNB-75 CNS
[48] = tested on: SR leukemia
[49] = tested on: SW-620 colon
[50] = tested on: T-47D breast
[51] = tested on: TK-10 renal
[52] = tested on: U251 CNS
[53] = tested on: UACC-257 melanoma
[54] = tested on: UACC-62 melanoma
[55] = tested on: UO-31 renal

C[C@@H]1CCC/C=C/[C@H]2C[C@@H](O)C[C@@H]2[C@@H](O)/C=C/C(=O)O1
401 nM: TGI [31]
3.42 µM: TGI [19]
553 nM: TGI [36]
171 nM: TGI [24]
166 nM: TGI [2]
961 nM: TGI [51]
> 33.3 µM: TGI [1] | TGI [3] | TGI [5] | TGI [6] | TGI [8] | TGI [9] | TGI [10] | TGI [11] | TGI [13] | TGI [15] | TGI [17] | TGI [18] | TGI [21] | TGI [23] | TGI [25] | TGI [26] | TGI [27] | TGI [28] | TGI [30] | TGI [32] | TGI [33] | TGI [34] | TGI [35] | TGI [38] | TGI [39] | TGI [40] | TGI [44] | TGI [45] | TGI [46] | TGI [47] | TGI [48] | TGI [52] | TGI [53] | TGI [54] | TGI [55]
5.16 µM: TGI [4]
1280 nM: TGI [14]
155 nM: TGI [20]
131 nM: TGI [7]
316 nM: TGI [16]
1170 nM: TGI [22]
109 nM: TGI [43]
225 nM: TGI [29]
active: GI50 [1] 95.1 nM | GI50 [2] 59.5 nM | GI50 [3] 127 nM | GI50 [4] 113 nM | GI50 [5] 140 nM | GI50 [6] 130 nM | GI50 [7] 63 nM | GI50 [8] 108 nM | GI50 [9] 139 nM | GI50 [10] 99.5 nM | GI50 [11] 112 nM | GI50 [12] 97.3 nM | GI50 [13] 145 nM | GI50 [14] 89.2 nM | GI50 [15] 21.1 nM | GI50 [16] 96.1 nM | GI50 [17] 145 nM | GI50 [18] 141 nM | GI50 [19] 84.5 nM | GI50 [20] 67.7 nM | GI50 [21] 93.2 nM | GI50 [22] 86.8 nM | GI50 [23] 96.6 nM | GI50 [24] 69.7 nM | GI50 [25] 136 nM | GI50 [26] 146 nM | GI50 [27] 129 nM | GI50 [28] 115 nM | GI50 [29] 75.6 nM | GI50 [30] 104 nM | GI50 [31] 111 nM | GI50 [32] 109 nM | GI50 [33] 136 nM | GI50 [34] 91.4 nM | GI50 [35] 125 nM | GI50 [36] 104 nM | GI50 [37] 49.8 nM | GI50 [38] 102 nM | GI50 [39] 140 nM | GI50 [40] 149 nM | GI50 [41] 92 nM | GI50 [42] 40 nM | GI50 [43] 54.7 nM | GI50 [44] 144 nM | GI50 [45] 114 nM | GI50 [46] 167 nM | GI50 [47] 23 nM | GI50 [48] 111 nM | GI50 [49] 101 nM | GI50 [50] 109 nM | GI50 [51] 114 nM | GI50 [52] 137 nM | GI50 [53] 110 nM | GI50 [54] 138 nM | GI50 [55] 116 nM
374 nM: TGI [12]
236 nM: TGI [41]
1360 nM: TGI [50]
12 µM: TGI [42]
327 nM: TGI [49]
258 nM: TGI [37]

From PubChem BioAssay (NCI)
